Assay results from PMC8550792, “Evolution of kinase polypharmacology across HSP90 drug discovery” (Cell Chemical Biology, 2021).

Assays:
Assay in all cases: biochemical
Assay type in all cases: biochemical
382 unique human kinases [1] = target: T1, 382 unique human kinases (Homo sapiens, UniProt O00506); details: STK25/YSK1, compound at 10 uM, duplicate values; for remaining activity at 10 µM: read-out: % Enzyme Activity (relative to DMSO controls)
T1 construct: purchased Reaction Biology (HotSpot contract assay)
T1 sequence (O00506 whole entry): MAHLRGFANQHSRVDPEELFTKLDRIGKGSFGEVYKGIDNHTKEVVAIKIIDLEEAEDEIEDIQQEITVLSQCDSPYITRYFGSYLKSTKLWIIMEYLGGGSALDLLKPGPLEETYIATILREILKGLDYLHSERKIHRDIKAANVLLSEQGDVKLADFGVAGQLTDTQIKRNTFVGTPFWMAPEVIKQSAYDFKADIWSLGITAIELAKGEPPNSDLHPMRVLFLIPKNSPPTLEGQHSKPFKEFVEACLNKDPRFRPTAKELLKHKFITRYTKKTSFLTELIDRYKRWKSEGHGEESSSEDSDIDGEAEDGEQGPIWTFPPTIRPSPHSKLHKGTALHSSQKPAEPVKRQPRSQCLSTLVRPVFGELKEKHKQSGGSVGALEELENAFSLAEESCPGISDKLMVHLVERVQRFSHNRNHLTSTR

382 unique human kinases [2] = target: T2, 382 unique human kinases (Homo sapiens, UniProt Q99683); details: ASK1/MAP3K5, compound at 10 uM, duplicate values; for remaining activity at 10 µM: read-out: % Enzyme Activity (relative to DMSO controls)
T2 construct: purchased Reaction Biology (HotSpot contract assay)
T2 sequence (Q99683 1-1374): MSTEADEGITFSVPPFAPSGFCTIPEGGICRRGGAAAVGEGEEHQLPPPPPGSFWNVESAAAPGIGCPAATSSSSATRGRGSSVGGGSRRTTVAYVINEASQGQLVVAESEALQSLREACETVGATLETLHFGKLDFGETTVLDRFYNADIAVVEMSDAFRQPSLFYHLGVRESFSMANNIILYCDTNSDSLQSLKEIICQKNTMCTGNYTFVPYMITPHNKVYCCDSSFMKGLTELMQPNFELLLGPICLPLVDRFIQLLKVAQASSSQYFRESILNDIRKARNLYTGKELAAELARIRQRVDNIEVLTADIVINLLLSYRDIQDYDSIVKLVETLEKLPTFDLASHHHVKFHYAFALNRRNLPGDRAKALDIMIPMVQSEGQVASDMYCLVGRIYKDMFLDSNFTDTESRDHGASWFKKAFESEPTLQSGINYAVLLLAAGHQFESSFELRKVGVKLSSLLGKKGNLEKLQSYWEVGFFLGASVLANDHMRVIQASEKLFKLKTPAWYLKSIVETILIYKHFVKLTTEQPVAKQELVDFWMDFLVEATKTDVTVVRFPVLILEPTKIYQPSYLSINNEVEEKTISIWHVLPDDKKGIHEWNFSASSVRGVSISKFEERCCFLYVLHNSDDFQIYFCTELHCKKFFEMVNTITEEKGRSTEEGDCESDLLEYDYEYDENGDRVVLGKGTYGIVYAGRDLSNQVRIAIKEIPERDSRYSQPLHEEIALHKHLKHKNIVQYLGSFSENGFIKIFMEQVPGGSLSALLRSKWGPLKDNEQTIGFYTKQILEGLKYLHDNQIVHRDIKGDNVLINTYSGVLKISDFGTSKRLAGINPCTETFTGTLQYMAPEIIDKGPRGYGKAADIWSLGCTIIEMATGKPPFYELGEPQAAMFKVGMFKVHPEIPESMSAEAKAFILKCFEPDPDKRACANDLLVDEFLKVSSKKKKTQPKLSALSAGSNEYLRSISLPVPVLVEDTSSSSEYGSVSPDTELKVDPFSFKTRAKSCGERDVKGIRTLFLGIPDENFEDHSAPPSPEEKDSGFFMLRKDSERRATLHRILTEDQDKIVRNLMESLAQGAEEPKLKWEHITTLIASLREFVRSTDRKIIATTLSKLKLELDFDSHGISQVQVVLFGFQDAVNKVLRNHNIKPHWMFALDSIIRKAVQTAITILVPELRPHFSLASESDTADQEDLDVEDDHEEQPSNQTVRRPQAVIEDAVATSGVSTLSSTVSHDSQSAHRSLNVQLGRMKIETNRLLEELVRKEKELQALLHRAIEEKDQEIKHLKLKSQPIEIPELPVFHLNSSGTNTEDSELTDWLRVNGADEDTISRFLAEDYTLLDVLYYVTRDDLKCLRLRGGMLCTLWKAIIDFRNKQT

382 unique human kinases [3] = target: T3, 382 unique human kinases (Homo sapiens, UniProt O95747); details: kinase OSR1/OXSR1, compound 10 uM; for remaining activity at 10 µM: read-out: % Enzyme Activity (relative to DMSO controls)
T3 construct: purchased Reaction Biology (HotSpot contract assay)
T3 sequence (O95747 whole entry): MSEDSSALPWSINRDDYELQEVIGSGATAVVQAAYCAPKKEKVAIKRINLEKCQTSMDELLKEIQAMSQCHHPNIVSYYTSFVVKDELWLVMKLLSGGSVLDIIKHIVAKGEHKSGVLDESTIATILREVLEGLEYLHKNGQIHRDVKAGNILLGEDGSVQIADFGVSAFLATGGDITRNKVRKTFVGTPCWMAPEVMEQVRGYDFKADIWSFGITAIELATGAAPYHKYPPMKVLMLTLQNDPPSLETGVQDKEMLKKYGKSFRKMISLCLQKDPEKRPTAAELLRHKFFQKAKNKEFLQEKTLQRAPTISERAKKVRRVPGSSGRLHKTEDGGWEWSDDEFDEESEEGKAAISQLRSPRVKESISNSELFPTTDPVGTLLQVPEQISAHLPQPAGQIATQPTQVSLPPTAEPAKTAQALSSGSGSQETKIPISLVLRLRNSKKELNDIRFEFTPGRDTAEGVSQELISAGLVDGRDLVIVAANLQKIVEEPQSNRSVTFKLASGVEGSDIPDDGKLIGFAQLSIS

382 unique human kinases [4] = target: T4, 382 unique human kinases (Homo sapiens, UniProt Q02763, P883A); details: TIE2 (P883A), 10 uM; for remaining activity at 10 µM: read-out: % Enzyme Activity (relative to DMSO controls)
T4 construct: purchased Reaction Biology (HotSpot contract assay)
T4 sequence (Q02763 23-1124 P883A): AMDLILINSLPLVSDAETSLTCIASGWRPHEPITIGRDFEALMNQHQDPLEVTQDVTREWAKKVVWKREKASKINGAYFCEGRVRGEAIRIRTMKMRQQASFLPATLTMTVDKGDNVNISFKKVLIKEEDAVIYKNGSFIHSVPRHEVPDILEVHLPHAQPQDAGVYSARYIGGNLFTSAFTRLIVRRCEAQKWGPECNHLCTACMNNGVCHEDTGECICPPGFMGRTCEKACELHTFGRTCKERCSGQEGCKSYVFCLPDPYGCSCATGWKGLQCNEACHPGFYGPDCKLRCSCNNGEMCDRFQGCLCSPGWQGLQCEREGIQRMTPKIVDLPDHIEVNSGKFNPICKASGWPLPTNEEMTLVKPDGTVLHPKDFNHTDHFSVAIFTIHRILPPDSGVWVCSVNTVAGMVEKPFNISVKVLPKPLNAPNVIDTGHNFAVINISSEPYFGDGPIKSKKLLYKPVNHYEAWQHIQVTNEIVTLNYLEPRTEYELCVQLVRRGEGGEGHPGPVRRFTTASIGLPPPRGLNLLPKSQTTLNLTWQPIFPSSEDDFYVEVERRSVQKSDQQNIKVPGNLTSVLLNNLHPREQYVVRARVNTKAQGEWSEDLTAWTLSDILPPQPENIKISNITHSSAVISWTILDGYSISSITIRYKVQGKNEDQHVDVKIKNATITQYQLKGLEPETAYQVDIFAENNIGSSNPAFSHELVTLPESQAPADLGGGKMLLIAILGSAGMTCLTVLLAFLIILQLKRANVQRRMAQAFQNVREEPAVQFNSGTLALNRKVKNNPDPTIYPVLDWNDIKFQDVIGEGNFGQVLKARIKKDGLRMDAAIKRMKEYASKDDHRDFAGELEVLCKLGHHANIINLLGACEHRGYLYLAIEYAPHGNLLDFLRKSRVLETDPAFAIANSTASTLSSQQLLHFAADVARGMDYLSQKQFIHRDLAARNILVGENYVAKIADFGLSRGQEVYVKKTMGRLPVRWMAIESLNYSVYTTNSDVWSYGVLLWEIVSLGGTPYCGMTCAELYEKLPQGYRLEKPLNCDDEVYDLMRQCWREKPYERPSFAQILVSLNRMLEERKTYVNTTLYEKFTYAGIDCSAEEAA

382 unique human kinases [5] = target: T5, 382 unique human kinases (Homo sapiens, UniProt Q92918); details: kinase HPK1/MAP4K1, compound 10 uM; for remaining activity at 10 µM: read-out: % Enzyme Activity (relative to DMSO controls)
T5 construct: purchased Reaction Biology (HotSpot contract assay)
T5 sequence (Q92918 whole entry): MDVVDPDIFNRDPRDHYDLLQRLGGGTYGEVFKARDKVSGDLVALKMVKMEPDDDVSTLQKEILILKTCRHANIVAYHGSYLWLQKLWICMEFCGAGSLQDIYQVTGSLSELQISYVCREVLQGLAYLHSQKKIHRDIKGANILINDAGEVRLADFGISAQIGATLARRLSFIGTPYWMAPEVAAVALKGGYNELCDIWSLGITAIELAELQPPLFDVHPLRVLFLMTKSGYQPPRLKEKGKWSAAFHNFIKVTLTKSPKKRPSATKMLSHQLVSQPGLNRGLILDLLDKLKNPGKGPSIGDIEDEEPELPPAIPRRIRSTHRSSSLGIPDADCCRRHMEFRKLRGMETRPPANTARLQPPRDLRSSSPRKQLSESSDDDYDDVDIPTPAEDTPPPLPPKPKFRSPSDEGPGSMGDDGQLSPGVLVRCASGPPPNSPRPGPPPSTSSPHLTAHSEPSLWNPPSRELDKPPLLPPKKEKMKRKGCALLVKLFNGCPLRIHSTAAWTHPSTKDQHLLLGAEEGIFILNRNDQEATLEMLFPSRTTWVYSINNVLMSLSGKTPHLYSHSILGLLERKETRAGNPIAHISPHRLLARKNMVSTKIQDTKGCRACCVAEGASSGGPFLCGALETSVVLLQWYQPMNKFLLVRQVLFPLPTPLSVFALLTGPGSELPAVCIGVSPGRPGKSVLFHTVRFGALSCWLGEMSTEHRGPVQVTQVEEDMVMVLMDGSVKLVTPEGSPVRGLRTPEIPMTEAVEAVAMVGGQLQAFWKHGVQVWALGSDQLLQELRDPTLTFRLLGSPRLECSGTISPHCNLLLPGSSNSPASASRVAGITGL

382 unique human kinases [6] = target: T6, 382 unique human kinases (Homo sapiens, UniProt Q96KB5); details: PBK/TOPK, 10 uM; for remaining activity at 10 µM: read-out: % Enzyme Activity (relative to DMSO controls)
T6 construct: purchased Reaction Biology (HotSpot contract assay)
T6 sequence (Q96KB5 1-322): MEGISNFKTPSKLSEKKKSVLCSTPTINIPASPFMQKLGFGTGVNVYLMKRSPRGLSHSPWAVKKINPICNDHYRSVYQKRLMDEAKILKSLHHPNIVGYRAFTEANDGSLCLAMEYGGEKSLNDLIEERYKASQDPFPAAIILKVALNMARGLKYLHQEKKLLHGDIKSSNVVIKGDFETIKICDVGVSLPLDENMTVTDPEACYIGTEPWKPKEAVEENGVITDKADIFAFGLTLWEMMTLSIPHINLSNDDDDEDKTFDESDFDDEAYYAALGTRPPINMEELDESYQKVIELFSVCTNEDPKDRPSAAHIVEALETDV

382 unique human kinases [7] = target: T7, 382 unique human kinases (Homo sapiens, UniProt P27361); details: ERK1, 10 uM; for remaining activity at 10 µM: read-out: % Enzyme Activity (relative to DMSO controls)
T7 construct: purchased Reaction Biology (HotSpot contract assay)
T7 sequence (P27361 whole entry): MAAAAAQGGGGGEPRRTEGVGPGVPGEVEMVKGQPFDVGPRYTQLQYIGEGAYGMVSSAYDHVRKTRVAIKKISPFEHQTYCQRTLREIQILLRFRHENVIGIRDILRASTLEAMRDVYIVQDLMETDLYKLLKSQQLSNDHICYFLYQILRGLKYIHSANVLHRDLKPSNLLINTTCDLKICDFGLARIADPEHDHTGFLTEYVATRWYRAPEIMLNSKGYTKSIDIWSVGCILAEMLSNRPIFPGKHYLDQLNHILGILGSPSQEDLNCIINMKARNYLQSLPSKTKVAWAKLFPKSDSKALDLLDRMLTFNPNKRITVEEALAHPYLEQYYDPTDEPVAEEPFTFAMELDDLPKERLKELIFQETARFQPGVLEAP

382 unique human kinases [8] = target: T8, 382 unique human kinases (Homo sapiens, UniProt P08581, V1092I); details: c-MET (V1092I), 10 uM; for remaining activity at 10 µM: read-out: % Enzyme Activity (relative to DMSO controls)
T8 construct: purchased Reaction Biology (HotSpot contract assay)

CC(C)c1cc(-c2n[nH]c(=O)n2-c2ccc3c(ccn3C)c2)c(O)cc1O [Ganetespib (STA9090)]
remaining activity at 10 µM (382 unique human kinases [1]): 107%
remaining activity at 10 µM (382 unique human kinases [2]): 110%
remaining activity at 10 µM (382 unique human kinases [3]): 82.7%
remaining activity at 10 µM (382 unique human kinases [4]): 74.5%
remaining activity at 10 µM (382 unique human kinases [5]): 97.5%

CC(C)c1cc(-c2n[nH]c(=O)n2-c2ccc3c(ccn3C)c2)c(O)cc1O [Ganetespib]
remaining activity at 10 µM (382 unique human kinases [6]): 93.8%
remaining activity at 10 µM (382 unique human kinases [7]): 101%
remaining activity at 10 µM (382 unique human kinases [8]): 98.3%

CCNC(=O)c1noc(-c2cc(C(C)C)c(O)cc2O)c1-c1ccc(CN2CCOCC2)cc1 [Luminespib]
% Enzyme Activity (relative to DMSO controls) (382 unique human kinases [6]): 96.61%
remaining activity at 10 µM (382 unique human kinases [6]): 98.3%
% Enzyme Activity (relative to DMSO controls) (382 unique human kinases [7]): 95.87%
remaining activity at 10 µM (382 unique human kinases [7]): 96.1%
% Enzyme Activity (relative to DMSO controls) (382 unique human kinases [8]): 95.91%
remaining activity at 10 µM (382 unique human kinases [8]): 97.2%

CCNC(=O)c1noc(-c2cc(C(C)C)c(O)cc2O)c1-c1ccc(CN2CCOCC2)cc1 [Luminespib (AUY-922)]
% Enzyme Activity (relative to DMSO controls) (382 unique human kinases [1]): 107.24%
remaining activity at 10 µM (382 unique human kinases [1]): 110%
% Enzyme Activity (relative to DMSO controls) (382 unique human kinases [2]): 105.53%
remaining activity at 10 µM (382 unique human kinases [2]): 106%
% Enzyme Activity (relative to DMSO controls) (382 unique human kinases [3]): 102.56%
remaining activity at 10 µM (382 unique human kinases [3]): 103%
% Enzyme Activity (relative to DMSO controls) (382 unique human kinases [4]): 100.72%
remaining activity at 10 µM (382 unique human kinases [4]): 104%
% Enzyme Activity (relative to DMSO controls) (382 unique human kinases [5]): 120.08%
remaining activity at 10 µM (382 unique human kinases [5]): 121%
